# Test results taken from ChEMBL document CHEMBL3596137, “N-Substituted pyrazole-3-carboxamides as inhibitors of human 15-lipoxygenase” (Bioorg Med Chem Lett, 2015).
# Active and inactive are the calls of the source. The calls are words filed in the database; no cut-off is given here.
# How the values were obtained:
# [1] = target: T1, Polyunsaturated fatty acid lipoxygenase ALOX15 (Homo sapiens, UniProt P16050); assay: Inhibition of human 15-LOX-1 using arachidonic acid as substrate by cell based assay
# T1 sequence (P16050 whole entry): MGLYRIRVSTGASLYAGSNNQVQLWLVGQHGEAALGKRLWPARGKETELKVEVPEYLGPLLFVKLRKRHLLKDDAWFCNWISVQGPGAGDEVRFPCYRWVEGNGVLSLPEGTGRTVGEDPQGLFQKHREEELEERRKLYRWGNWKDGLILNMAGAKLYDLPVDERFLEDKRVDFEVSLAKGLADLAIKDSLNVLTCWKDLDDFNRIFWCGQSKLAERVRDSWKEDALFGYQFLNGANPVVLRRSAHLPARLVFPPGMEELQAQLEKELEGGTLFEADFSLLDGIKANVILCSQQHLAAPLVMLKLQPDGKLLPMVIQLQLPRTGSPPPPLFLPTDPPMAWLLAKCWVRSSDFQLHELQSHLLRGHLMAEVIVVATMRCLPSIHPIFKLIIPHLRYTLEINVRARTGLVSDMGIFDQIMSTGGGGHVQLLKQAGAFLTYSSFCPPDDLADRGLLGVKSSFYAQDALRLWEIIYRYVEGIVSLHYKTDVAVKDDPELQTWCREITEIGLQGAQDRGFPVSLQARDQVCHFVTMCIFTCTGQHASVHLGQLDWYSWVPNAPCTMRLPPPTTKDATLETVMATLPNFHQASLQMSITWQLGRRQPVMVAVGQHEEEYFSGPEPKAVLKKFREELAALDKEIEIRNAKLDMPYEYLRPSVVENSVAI
# [2] = target: T2, Polyunsaturated fatty acid 5-lipoxygenase (Homo sapiens) (UniProt P09917); assay: Inhibition of 5-LOX (unknown origin) using arachidonic acid as substrate at 10 uM
# T2 sequence (whole entry): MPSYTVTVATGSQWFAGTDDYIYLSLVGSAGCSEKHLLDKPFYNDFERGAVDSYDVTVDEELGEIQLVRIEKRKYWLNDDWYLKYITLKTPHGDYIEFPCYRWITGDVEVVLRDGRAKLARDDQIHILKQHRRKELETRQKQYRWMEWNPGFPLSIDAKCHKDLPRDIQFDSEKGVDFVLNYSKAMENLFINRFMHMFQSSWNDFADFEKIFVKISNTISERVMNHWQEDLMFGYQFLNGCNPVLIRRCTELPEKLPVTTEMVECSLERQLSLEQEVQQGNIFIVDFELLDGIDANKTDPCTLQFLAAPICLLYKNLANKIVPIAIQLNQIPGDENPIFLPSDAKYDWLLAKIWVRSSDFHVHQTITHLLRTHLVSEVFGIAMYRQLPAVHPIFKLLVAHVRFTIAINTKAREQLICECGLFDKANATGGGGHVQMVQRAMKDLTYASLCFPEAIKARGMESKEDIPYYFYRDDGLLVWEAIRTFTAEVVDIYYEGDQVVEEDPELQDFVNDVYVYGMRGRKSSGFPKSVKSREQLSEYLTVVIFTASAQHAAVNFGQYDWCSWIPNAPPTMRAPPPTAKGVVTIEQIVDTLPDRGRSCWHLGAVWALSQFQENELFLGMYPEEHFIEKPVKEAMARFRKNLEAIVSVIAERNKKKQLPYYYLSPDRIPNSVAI
# [3] = target: T3, Polyunsaturated fatty acid lipoxygenase ALOX12 (Homo sapiens) (UniProt P18054); assay: Inhibition of 12-LOX (unknown origin) using arachidonic acid as substrate at 10 uM
# T3 sequence (whole entry): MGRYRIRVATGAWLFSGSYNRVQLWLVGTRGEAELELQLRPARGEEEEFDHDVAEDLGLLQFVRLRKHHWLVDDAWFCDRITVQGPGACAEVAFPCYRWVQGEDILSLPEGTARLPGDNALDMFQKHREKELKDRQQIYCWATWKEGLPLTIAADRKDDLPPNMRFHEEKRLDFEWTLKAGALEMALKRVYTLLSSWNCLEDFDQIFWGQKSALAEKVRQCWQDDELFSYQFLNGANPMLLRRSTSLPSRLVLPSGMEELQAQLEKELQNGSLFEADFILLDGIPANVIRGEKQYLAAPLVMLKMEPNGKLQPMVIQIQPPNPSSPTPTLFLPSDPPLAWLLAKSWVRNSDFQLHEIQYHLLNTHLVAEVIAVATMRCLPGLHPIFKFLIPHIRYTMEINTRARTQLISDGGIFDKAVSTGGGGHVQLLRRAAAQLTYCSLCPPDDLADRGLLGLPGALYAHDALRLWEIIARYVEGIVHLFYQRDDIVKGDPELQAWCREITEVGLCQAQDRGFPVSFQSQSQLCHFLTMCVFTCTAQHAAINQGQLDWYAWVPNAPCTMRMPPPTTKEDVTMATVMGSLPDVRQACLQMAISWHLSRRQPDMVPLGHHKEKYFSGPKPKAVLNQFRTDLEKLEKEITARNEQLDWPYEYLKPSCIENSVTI
# [4] = target: Prostaglandin G/H synthase 1 (Homo sapiens) (UniProt P23219); assay: Inhibition of COX1 (unknown origin) using arachidonic acid as substrate at 10 uM
# [5] = target: T2, Polyunsaturated fatty acid 5-lipoxygenase (Homo sapiens); assay: Inhibition of 5-LOX (unknown origin) using arachidonic acid as substrate at 10 uM by cell based assay
# [6] = target: T4, Prostaglandin G/H synthase 2 (Homo sapiens) (UniProt P35354); assay: Inhibition of COX2 (unknown origin) using arachidonic acid as substrate at 10 uM
# T4 sequence (whole entry): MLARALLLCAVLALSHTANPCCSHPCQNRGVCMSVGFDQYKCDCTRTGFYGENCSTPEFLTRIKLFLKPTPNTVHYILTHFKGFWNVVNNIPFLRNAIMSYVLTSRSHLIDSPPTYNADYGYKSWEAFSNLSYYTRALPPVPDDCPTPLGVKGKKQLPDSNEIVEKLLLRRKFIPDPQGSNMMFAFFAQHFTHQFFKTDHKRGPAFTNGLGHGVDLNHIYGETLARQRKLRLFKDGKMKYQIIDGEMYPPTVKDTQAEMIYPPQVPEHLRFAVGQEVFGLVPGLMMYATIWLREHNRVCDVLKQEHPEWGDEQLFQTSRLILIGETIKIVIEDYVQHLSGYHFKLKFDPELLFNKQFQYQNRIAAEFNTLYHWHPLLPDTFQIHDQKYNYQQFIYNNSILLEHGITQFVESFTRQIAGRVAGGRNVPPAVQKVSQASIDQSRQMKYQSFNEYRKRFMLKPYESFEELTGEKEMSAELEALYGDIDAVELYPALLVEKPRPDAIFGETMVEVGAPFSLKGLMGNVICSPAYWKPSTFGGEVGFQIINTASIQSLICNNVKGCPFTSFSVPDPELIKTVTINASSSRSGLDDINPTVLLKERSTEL
# [7] = target: T1, Polyunsaturated fatty acid lipoxygenase ALOX15; assay: Inhibition of human 15-LOX-1 using arachidonic acid as substrate
# Sequence of Prostaglandin G/H synthase 1 (Homo sapiens) (P23219 whole entry): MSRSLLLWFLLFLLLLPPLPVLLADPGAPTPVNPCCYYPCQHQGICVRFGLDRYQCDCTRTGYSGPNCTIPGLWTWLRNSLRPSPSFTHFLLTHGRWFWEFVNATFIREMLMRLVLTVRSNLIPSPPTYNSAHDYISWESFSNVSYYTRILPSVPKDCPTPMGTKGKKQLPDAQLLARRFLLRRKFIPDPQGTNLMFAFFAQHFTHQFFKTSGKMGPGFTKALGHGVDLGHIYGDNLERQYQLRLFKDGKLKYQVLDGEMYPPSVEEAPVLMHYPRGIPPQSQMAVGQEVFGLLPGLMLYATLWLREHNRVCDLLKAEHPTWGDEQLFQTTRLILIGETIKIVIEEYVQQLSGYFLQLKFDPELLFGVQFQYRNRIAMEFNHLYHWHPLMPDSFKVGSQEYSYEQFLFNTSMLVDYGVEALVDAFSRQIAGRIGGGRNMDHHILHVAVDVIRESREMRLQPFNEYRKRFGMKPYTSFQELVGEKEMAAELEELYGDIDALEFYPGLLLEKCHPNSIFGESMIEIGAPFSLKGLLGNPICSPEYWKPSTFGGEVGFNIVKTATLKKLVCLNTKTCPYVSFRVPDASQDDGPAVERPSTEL
compound,measurement,setting,value
O=C(Nc1ccc(F)cc1Cl)c1ccn(C(=O)Cc2ccccc2)n1,IC50,[1],Not Active
CN(C)S(=O)(=O)n1ccc(C(=O)Nc2ccc(F)cc2Cl)n1,IC50,[1],Not Active
O=C(Nc1ccccc1Cl)c1ccn(C(=O)c2cccc(Cl)c2)n1,inhibition,[2],8%
same,inhibition,[3],18%
same,inhibition,[4],11%
same,inhibition,[5],16%
same,inhibition,[6],inactive
CCCCCCNC(=O)n1cc(CCCC)c(C(=O)Nc2ccc(F)cc2Cl)n1,IC50,[1],Not Active
same,IC50,[7],Not Active
Cn1cc(Cl)c(C(=O)Nc2ccc(F)cc2Cl)n1,IC50,[1],Not Active
O=C(Nc1ccc(F)cc1Cl)c1ccn(S(=O)(=O)c2cccc(C(F)(F)F)c2)n1,IC50,[1]; read-out: IC50,1060 nM
same,IC50,[7]; read-out: IC50,1940 nM
